Experimental data from patent US20090203901A1, “Process for preparing pyrazole functionalized benzodiazepinones” (Roche Colorado Corporation, priority 2008, published 2009).

Legend:
[1] = system: tumor growth and metastasis; details: cited from earlier work
[2] = system: vascular endothelial cell proliferation; details: endothelial versus tumor cell proliferation; cited from earlier work

`COc1cc(NC(=O)CBr)c(C(=O)c2ccccc2Cl)cc1F` showed a melting point of 177 to 178 °C.
In the case of `COc1cc2c(cc1F)C(c1ccccc1Cl)=NCC(=O)N2`, the melting point is reported as 210 to 212.5 °C.
For `CO[C@@H]1[C@H](OC(=O)NC(=O)CCl)CC[C@]2(CO2)[C@H]1[C@@]1(C)O[C@@H]1CC=C(C)C` [AGM-1470], the “tumor growth and metastasis in vivo” value [1] is listed as “inhibits tumor growth and metastasis in vivo” and the “half-maximal inhibition of vascular endothelial cell proliferation at lower concentration than tumor cell proliferation” value [2] is listed as 4 logs.
For `COc1cc(F)c(C(=O)c2ccccc2Cl)cc1F` [Example 1, 2′-Chloro-2,5-difluoro-4-methoxybenzophenone], the melting point was 84 to 85 °C.
In the case of `COc1cc(NCc2ccccc2)c(C(=O)c2ccccc2Cl)cc1F` [Example 2, 2-(Benzylamino)-2′-chloro-5-fluoro-4-methoxybenzophenone], the melting point is reported as 122 to 124 °C.
Work on `COc1cc(N)c(C(=O)c2ccccc2Cl)cc1F` [Example 3a, 2-Amino-2′-chloro-5-fluoro-4-methoxybenzophenone] yielded a melting point of 130.5 to 132.5 °C.
For `C=CCNc1cc(OC)c(F)cc1C(=O)c1ccccc1Cl` [Example 9, 2-(Allylamino)-2′chloro-5-fluoro-4-methoxybenzophenone], the melting point was 125 to 127 °C.
